# Patent EP0533056A2, “Substituted aminopropanes, process for their preparation and their use as antimycotic agents” (HOECHST AKTIENGESELLSCHAFT, priority 1991, dated 1993)
# Legend:
# [1] = tested on: Phospholipase von Candida albicans; experiment: Inhibition of released exoenzymes (phospholipase) of Candida albicans blastoconidia, egg-yolk agar plate, turbidity halo; format: cell-based; details: Candida albicans Stamm 200/175, in vitro
# Protocol: Zur Feststellung der Enzymhemmung wurde eine Suspension von Candida albicans Blastokonidien (Stamm 200/175), wobei die Keimdichte photometrisch auf eine Extinktion von 0,5 (500 nm) eingestellt war, mit Präparatelösung bzw. zur Kontrolle mit Lösungsmittellösung vermischt und zwar • a) 100 µl Präparatelösung (Suspension) • + 900 µl Keimsuspension • b) 100 µl Lösungsmittel • + 900 µl Keimsuspension Jeweils 5 µl der 30 min bei 21 ° C inkubierten Blastokonidiensuspension wurden auf eine Agarplatte (Sabourand Agar mit Zusatz von 8 % Eigelb, 1 m NaCI, 5 mM CaC12) aufgetropft.
# Die so beimpfte Platte wurde 3 Tage bei 37 ° C bebrütet.
# Die Auswertung erfolgte derart, daß • 1. der Durchmesser (mm) der Candida albicans-Kolonie (behandelt und unbehandelt) sowie • 2. der Gasamtdurchmesser von Kolonie und Trübungshof, welcher durch Exoenzyme verursacht wurde (behandelt und unbehandelt), bestimmt wurde.
# Aus der Bestimmung des Quotienten von Präparate- und Kontrollgruppe ergab sich ein Wert, der als Maß für die Enzymaktivität anzusehen war.
# [2] = tested on: Trichophyton mentagrophytes; experiment: Percent killing of Trichophyton mentagrophytes in vitro; format: cell-based; details: nach 14 h in aqua dest., read-out: %-Abtötung von Trichophyton mentagrophytes
# Excerpt: Die pilzabtötende, antimykotische Wirksamkeit der Verbindungen wurde an einigen Beispielen (s. Tabelle 3) anhand der prozentualen Abtötung von Trichophyton mentagrophytes in vitro verifiziert (Standardpräparat Rilopirox als Vergleichssubstanz).
# [3] = tested on: Phospholipase aus Leberzellen; details: in-vitro-Test, literature (Pappu A.S. et al., Biochem. Pharmacol. 34, 521-24, 1985); cited from earlier work
Compound,% Hemmung der Phospholipase ([1]; Konzentration 50 μm/ml),% Hemmung der Phospholipase ([1]; Konzentration 100 μm/ml),% Hemmung der Phospholipase ([1]; Konzentration 10 μm/ml),% Hemmung der Phospholipase ([1]; Konzentration 5 μm/ml),killing at 40 µg/mL [2],killing at 80 µg/mL [2],% Hemmung der Phospholipase ([1]; Konzentration 1 μm/ml),Hemmwirkung gegenüber Phospholipase aus Leberzellen [3]
CC(C)(C)NCC(O)(COc1ccc(OCc2ccccc2)cc1)C(C)(C)C (centres unmarked) [1.5],100%,100%,,,,,,
"CC(C)NCC(O)(COc1ccc(Cl)cc1Cl)C(C)(C)C (centres unmarked) [1.7, 2-t-Butyl-1-(2,4-dichlorphenoxy)-3-isopropyl-amino-2-propanol]",,100%,20%,,,,,
CCCCNCC(O)(COc1ccc(C(C)(C)C)cc1)C(C)(C)C (centres unmarked) [1.11],,100%,,,,,,
CCCCNCC(O)(COc1ccc(C(C)(C)C)cc1)c1ccc(-c2ccccc2)cc1 (centres unmarked) [1.15],100%,100%,100%,100%,,,,
CCCCCCCCCCCCNCC(O)(COc1ccc(C(C)(C)C)cc1)c1ccc(-c2ccccc2)cc1 (centres unmarked) [1.17],100%,100%,100%,100%,97.8%,100%,,
CCCCCCCOc1ccc(OCC(O)(CNCCCC)C(C)(C)C)cc1 (centres unmarked) [1.18],100%,100%,100%,100%,,,,
"CCCCCCCOc1ccc(OCC(O)(CNCc2ccccc2)C(C)(C)C)cc1 (centres unmarked) [1.19, 3-N-Benzylamino-2-t-butyl-1-(4-heptyloxy-phenyl-oxy)-2-propanol]",100%,100%,100%,100%,,,,
CCCCCCCOc1ccc(OCC(O)(CNCc2ccc(OC)c(OC)c2)C(C)(C)C)cc1 (centres unmarked) [1.21],100%,100%,100%,,,,,
CCCCCCCOc1ccc(OCC(O)(CNCCC(c2ccccc2)c2ccccc2)C(C)(C)C)cc1 (centres unmarked) [1.22],100%,100%,10%,,,,,
CCCCCCCCCCCCNCC(O)(COc1ccc(OCCCCCCC)cc1)C(C)(C)C (centres unmarked) [1.23],100%,100%,100%,100%,,,,
CCCCCCCOc1ccc(OCC(O)(CNC(C)C)C(C)(C)C)cc1 (centres unmarked) [1.24],100%,100%,100%,100%,,,,
CC1(C)CC(NCC(O)(COc2ccc(Oc3ccccc3)cc2)C(C)(C)C)CC(C)(C)N1 (centres unmarked) [1.31],100%,100%,100%,7.7%,,,,
CCCCCCCCCCCCNCC(O)(COc1ccc(Oc2ccccc2)cc1)C(C)(C)C (centres unmarked) [1.34],100%,100%,100%,33.3%,,,6.3%,
CC(C)(C)CC(C)(C)c1ccc(OCC(O)(CNCc2ccc(Cl)cc2Cl)C(C)(C)C)cc1 (centres unmarked) [1.48],100%,100%,100%,100%,,,14.3%,
CCCCCCCCCCCCNCC(O)(COc1ccc(OCCCCCCC)cc1)c1ccccc1 (centres unmarked) [1.53],100%,100%,100%,100%,,,,
"CC(C)NCC(O)COc1cccc2ccccc12 (centres unmarked) [Propranolol, reference compound]",,30%,,,,,,wirksamste Substanz
"Cc1cc(COc2ccc(Oc3ccc(Cl)cc3)cc2)n(O)c(=O)c1 [Rilopirox, reference compound]",,,,,100%,100%,,
